Experimental data: patent US10738070B2, “Mannose-derived antagonists of FimH useful for treating disease” (Fimbrion Therapeutics, Inc., priority 2016, dated 2020)

How the values were obtained:
[1] = tested on: UTI89 bacteria; test: Biofilm inhibition assay; type: cell-based; settings: read-out: Biofilm prevention IC50
Protocol: Biofilm Assay The biofilm inhibition assay was performed with UTI89 bacteria as previously described (L. Cegelski, J. S. Pinkner, N. D. Hammer, C. K. Cusumano, C. S. Hung, E. Chorell, V. Aberg, J. N. Walker, P. C. Seed, F. Almqvist, M. R. Chapman, S. J. Hultgren Nature Chem. Biol. 2009, 5, 913-919). Compounds not listed were not tested.

[2] = target: FimHL (Escherichia coli, UniProt P08191); test: Differential scanning fluorimetry (DSF); type: binding; settings: purified FimHL 10 μM with mannoside 100 μM; mean of two biological replicates
Protocol: Differential scanning fluorimetry (DSF) Purified FimHL (10 μM) in the absence or presence of mannoside (100 μM) was combined with 5× SYPRO Orange in a 50 μl reaction mixture buffered in 20 mM HEPES pH 7.5, 150 mM NaCl (HBS) and 0.4% DMSO. Binding equilibria were established by allowing the reaction mixtures to incubate at 23° C. for 30 min. These reaction mixtures were then placed in 96-well clear-bottom PCR plates and subjected to a melt curve from 20-90° C. in 0.5° C. increments of 15 seconds, each followed by a fluorescence read of the “HEX” channel in a Bio-Rad CFX96 thermocycler (Bio-Rad, Hercules, Calif.). Melt curves were fitted to the Boltzmann equation (y=A2+(A1−A2)/(1+exp((x−xo)/dx)) where xo is the Tm) to determine the melting temperature (Tm) using GraphPad Prism 6 (San Diego Calif.). Melting temperatures are represented as the mean and standard error of two biological replicates, each of which consisted of three technical replicates. Compounds not listed were not tested.

[3] = target: T1, FimH (Escherichia coli, UniProt Q1R2J4); test: Hemagglutination inhibition (HAI) assay with UTI89 bacteria and guinea pig red blood cells; type: cell-based; settings: concentration reducing bacterial agglutination of guinea pig red blood cells by greater than 90%; UTI89 bacteria
T1 construct: endogenous in cells; host or cells: E. coli UTI89 bacteria
Protocol: “HAI or EC>90” is that concentration of the FimH inhibitor/antagonist which reduces the bacterial agglutination of guinea pig red blood cells by greater than 90%.
HAI Assay The hemagglutination inhibition (HAI) assay was performed with UTI89 bacteria and guinea pig red blood cells, as previously described (S. J. Hultgren, W. R. Schwan, A. J. Schaeffer, J. L. Duncan Infect. Immun. 1986, 54, 613-620). Compounds not listed were not tested.

Compound | IC50 [1] [nM] | DSF Melting Temp [2] [°C] | HAI titer EC>90 [3] [µM]
Cc1cc(-c2ccc3c(c2)C(=O)NCC3)ccc1OC1OC(CO)C(O)C(O)C1O [Example 21, 3,4-Dihydro-7-[4′-(α-D-mannopyranosyloxy)-3′-methylphenyl]-1(2H)-iso-quinolinone] | 247 | 75.0 | 0.032
Cc1cc(-n2cc(-c3cccnc3)nn2)ccc1O[C@H]1O[C@H](CO)[C@@H](O)[C@H](O)[C@@H]1O [Example 2, 2-methyl-4-[4-(pyridin-3-yl)-1H-1,2,3-triazol-1-yl]phenyl α-D-mannopyranoside] | 524 | 74.4 | 0.032
Cc1cc(-c2ccc3ccnc(N)c3c2)ccc1O[C@H]1O[C@H](CO)[C@@H](O)[C@H](O)[C@@H]1O [Example 14, 7-[4′-(α-D-mannopyranosyloxy)-3′-methylphenyl]-isoquinolin-1-amine] | 336 | 75.1 | 0.02
Cc1cc(-n2cc(-c3ccccc3)nn2)ccc1O[C@H]1O[C@H](CO)[C@@H](O)[C@H](O)[C@@H]1O [Example 4, 2-methyl-4-[4-(phenyl)-1H-1,2,3-triazol-1-yl]phenyl α-D-mannopyranoside] | 320 | 74.1 | 0.032
